Data taken from the supplement of paper PMC10307832.

Columns and labels:
Assay in all cases: relative viability (nuclei count vs DMSO), 5 days (fraction); higher = more cells survive
[1] = compound: CCOC1=CC=CC=C1N=NC2=C(NN(C2=O)C3=NC(=CS3)C4=CC=CC=C4)C [BAM7] + COc1cccc2cc(-c3nc([C@H]4CC[C@H](C(=O)O)CC4)n4ncnc(N)c34)[nH]c12 [OSI-027] (partner 0.5 µM)
In short: (§1)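 The day after seeding in 1536-well plates, lung cancer cell lines were treated by pin tool with a single drug, or with a fixed anchor-drug dose together with five library-drug doses (not always all listed) in √10 steps. After 5 days, a combined fix-and-stain solution (final 0.05% Triton X-100, 1% formaldehyde, 1 ug/ml Hoechst) was added. Nuclei counted on 4× images gave relative viability as treated counts over vehicle counts, reported as the median of duplicate plates.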

[2] = compound: CCOC1=CC=CC=C1N=NC2=C(NN(C2=O)C3=NC(=CS3)C4=CC=CC=C4)C [BAM7] + C[C@]1(O)C[C@@H](c2nc(-c3ccc4ccc(-c5ccccc5)nc4c3)c3c(N)nccn32)C1 [Linsitinib] (partner 1 µM)
In short: as §1

[3] = compound: CCOC1=CC=CC=C1N=NC2=C(NN(C2=O)C3=NC(=CS3)C4=CC=CC=C4)C [BAM7] + N=C(N)NC(=N)NCCc1ccccc1 [Phenformin] (partner 250 µM)
In short: as §1

[4] = compound: CCn1c(-c2nonc2N)nc2c(C#CC(C)(C)O)ncc(OC[C@H]3CCCNC3)c21 + CCNC(=O)c1noc(-c2cc(C(C)C)c(O)cc2O)c1-c1ccc(CN2CCOCC2)cc1 [Luminespib] (partner 0.01 µM)
In short: as §1

Cell Line	relative viability ([1]; first compound 0.5 µM)	relative viability ([1]; first compound 5 µM)	relative viability ([1]; first compound 15.81 µM)	relative viability ([1]; first compound 50 µM)	relative viability ([2]; first compound 0.5 µM)	relative viability ([2]; first compound 5 µM)	relative viability ([2]; first compound 15.81 µM)	relative viability ([2]; first compound 50 µM)	relative viability ([3]; first compound 0.5 µM)	relative viability ([3]; first compound 5 µM)	relative viability ([3]; first compound 15.81 µM)	relative viability ([3]; first compound 50 µM)	relative viability ([4]; first compound 0.01 µM)	relative viability ([4]; first compound 0.03162 µM)	relative viability ([4]; first compound 0.1 µM)	relative viability ([4]; first compound 0.3162 µM)	relative viability ([4]; first compound 1 µM)
LC-2-ad	0.918	0.865	0.8	0.902	0.856	0.898	0.812	0.783	0.538	0.55	0.582	0.591	0.964	0.967	1.1	1.04	0.974
SK-LU-1	0.33	0.362	0.345	0.343	0.969	1.21	1.22	1.21	0.556	0.733	0.532	0.619	0.22	0.2	0.211	0.22	0.215
ChaGo-K-1	0.444	0.481	0.52	0.525					0.425	0.351	0.393	0.394	0.564	0.588	0.655	0.535	0.505
COR-L 105	0.688	0.579	0.73	0.713	1.14	0.801	1	0.97	0.516	0.503	0.551	0.534	0.621	0.868	0.709	0.775	0.923
NCI-H1975	0.496	0.525	0.465	0.532	0.847	0.981		0.898	0.401	0.425	0.391	0.427	0.214	0.166	0.199	0.247	0.304
Calu-6					1.1	1.11	0.913	1.02									
HCC-366	0.879	0.839	0.729	0.784	0.67	0.501	0.583	0.677	0.576	0.605	0.668	0.594					
NCI-H2342	0.584	0.587	0.604	0.566					0.59	0.739	0.594	0.521	0.91	0.678	0.67	0.625	0.757
EBC-1					0.856	1.07	0.876	0.85									
NCI-H1299					1.02	1.14	1.02	0.936									
NCI-H522	0.976	0.744	0.687	0.831					0.671	0.768	0.614	0.712	0.929	1.19	1.14	0.604	1.2
IA-LM					0.755	0.705	0.545	0.672									
NCI-H2170	0.688	0.592	0.635	0.72					0.385	0.362	0.388	0.371	0.779	0.785	0.572	0.731	0.744
